According to article PMC6240894 (2018):

Tests used:
[1] = system: 25Ceb (DNA, G4) AGGGTGGGTGTAAGTGTGGGTGGGT; test: UV/Vis and fluorescence titration, averaged; details: K+ 100 mM; 10 mM Tris, pH 7.4, 25 °C
[2] = system: sG4 (DNA, G4) GGGTGGGTAGGGTGGG; test: UV/Vis and fluorescence titration, averaged; details: K+ 100 mM; 10 mM Tris, pH 7.4, 25 °C
[3] = system: Kras 32 (DNA, G4) AGGGCGGTGTGGGAAGAGGGAAGAGGGGGAGG; test: UV/Vis and fluorescence titration, averaged; details: K+ 100 mM; 10 mM Tris, pH 7.4, 25 °C; site 1 of 2; K12 4.1 × 10^5; 1:2 fit of lower credibility
[4] = system: Kras 22 (DNA, G4) AGGGCGGTGTGGGAATAGGGAA; test: UV/Vis and fluorescence titration, averaged; details: K+ 100 mM; 10 mM Tris, pH 7.4, 25 °C; site 1 of 2; K12 1.7 × 10^6; 1:2 fit of lower credibility
[5] = system: VAV-1 (DNA, G4) GGGCAGGGAGGGAACTGGG; test: UV/Vis and fluorescence titration, averaged; details: K+ 100 mM; 10 mM Tris, pH 7.4, 25 °C
[6] = system: 22AG (DNA, G4) AGGGTTAGGGTTAGGGTTAGGG; test: fluorescence and UV/Vis titration; details: K+ 100 mM; 10 mM Tris, pH 7.4, 25 °C; lower optical response
[7] = system: c-myc (DNA, G4) TGAGGGTGGGTAGGGTGGGTAA; test: UV/Vis and fluorescence titration, averaged; details: K+ 100 mM; 10 mM Tris, pH 7.4, 25 °C

COCCOCCOCCOc1cc(CN2C(=CC3=C([O-])C(=Cc4sc5ccccc5[n+]4Cc4cc(OCCOCCOCCOC)c(OCCOCCOCCOC)c(OCCOCCOCCOC)c4)C3=C(C#N)C#N)Sc3ccccc32)cc(OCCOCCOCCOC)c1OCCOCCOCCOC
K11 [1]: 900000 M⁻¹ | K11 [2]: 8.1e+06 M⁻¹ | K11 [3]: 5.9e+06 M⁻¹ | K11 [4]: 1.5e+07 M⁻¹ | K11 [5]: 1.2e+07 M⁻¹ | binding [6]: weak | K11 [7]: 1e+07 M⁻¹
